Results published in PMC4397963, “Phospho-Tyrosine(s) vs. Phosphatidylinositol Binding in Shc Mediated Integrin Signaling” (American journal of molecular biology, 2015).
“Also recorded” adds a separate entry of the source. Where no end group is shown, it is not given here. [ ]: non-standard residue; d: D form. pY = N[C@@H](Cc1ccc(OP(=O)(O)O)cc1)C(=O)O

T1: Shc PTB domain (17 – 207) (Homo sapiens, UniProt P29353)
T1 construct: The Shc PTB domain (17 – 207) containing the pET15b vector was transformed into a Rosetta (DE3) cell line; His-tag (N); made in house; host or cells: E. coli Rosetta (DE3), pET15b
T1 sequence (P29353 17-207 isoform P29353-2): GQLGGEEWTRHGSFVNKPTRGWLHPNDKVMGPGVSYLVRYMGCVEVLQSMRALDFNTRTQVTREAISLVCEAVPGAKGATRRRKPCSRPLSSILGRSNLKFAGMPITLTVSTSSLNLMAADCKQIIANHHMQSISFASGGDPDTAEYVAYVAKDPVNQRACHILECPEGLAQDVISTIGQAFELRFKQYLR

T2: Shc PTB domain (17 – 207) (UniProt P29353-2 17-207)
T2 construct: Shc adaptor protein (p52 isoform), PTB domain, residues 17-207, from a pET15b vector; numbers count on: the p52 isoform (full length 1-473); 15N-labelled (M9 medium with 15NH4Cl) for the NMR experiments; Monomeric on Superdex-75; also called apo PTB domain; source: E. coli Rosetta (DE3), purified (Ni-NTA, Superdex-75)
T2 sequence (looked up): T1 sequence (P29353 17-207 isoform P29353-2)

T3: full length Shc (1 – 473) (UniProt P29353-2 1-473)
T3 construct: Shc adaptor protein, full length 1-473 (printed length 473 residues, the p52 isoform), from a pET28a vector provided by Dr. Ladbury; numbers count on: the p52 isoform; Monomeric on Superdex-75; also called Shc full length; p52 Shc; source: E. coli BL21 (DE3), purified (Ni-NTA, Superdex-75)
T3 sequence (looked up): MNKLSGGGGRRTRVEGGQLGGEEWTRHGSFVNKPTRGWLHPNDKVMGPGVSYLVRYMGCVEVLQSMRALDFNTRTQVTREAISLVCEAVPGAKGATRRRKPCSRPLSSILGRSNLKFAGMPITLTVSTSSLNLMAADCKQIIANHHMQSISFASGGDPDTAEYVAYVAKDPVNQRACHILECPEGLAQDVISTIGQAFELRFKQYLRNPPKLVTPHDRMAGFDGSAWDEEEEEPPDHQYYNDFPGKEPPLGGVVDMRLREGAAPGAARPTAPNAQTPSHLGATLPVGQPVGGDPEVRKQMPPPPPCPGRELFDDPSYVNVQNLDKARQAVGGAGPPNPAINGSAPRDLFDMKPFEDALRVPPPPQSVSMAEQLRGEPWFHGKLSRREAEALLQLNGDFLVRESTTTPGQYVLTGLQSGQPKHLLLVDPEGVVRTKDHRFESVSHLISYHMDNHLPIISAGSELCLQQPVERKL

B1: bi-β3: β3 integrin derived bi-phosphorylated (Y747 and Y759) peptide (peptide)
peptide: RAKWDTANNPL[pY]KEATSTFTNIT[pY]RGT
notes: integrin β3 cytoplasmic tail, residues 736-762, both tyrosines phosphorylated; also called bi-phosphorylated β3 cytoplasmic tail peptide; source: synthetic peptide (NEO-Peptide)

Legend:
apo PTB domain of Shc = details: unilamellar liposomes centrifugation assay; ref [15]; read-out: binding affinity, apo PTB domain; cited from earlier work
[1] = molecular target: PTB domain complexed with TrkA peptide; details: roughly estimated; ref [15]; cited from earlier work
Shc PTB domain = details: ref [15]; cited from earlier work
Source text: Since their discovery about two decades ago, PTB domains have been identified and structurally characterized within numerous multi-domain proteins. The ways they interact with their targets are strikingly versatile. The phosphorylated tyrosine is not always required for the high affinity interactions, and, in some cases, the binding motif might not even contain the tyrosine residue at all. PTB domains in general are also famous for the significant variance in their ligand binding affinities, ranging from 0.1 to 100 μM [17].

apo Shc PTB domain = experiment: 15N-HSQC NMR titration of apo Shc PTB domain; format: binding; details: 15N-labelled apo PTB 100 – 200 μM, 50 mM Tris pH 7.5, 100 mM NaCl, 35°C; lipid to protein up to 15 to 1 (Ins(1,4,5)P3), 5 to 1 (PtdIns(4,5)P2)
Method: ^15N-labelled recombinant proteins were overexpressed in M9 medium supplemented with ^15NH4Cl as the sole nitrogen source. The same purification procedures as described above were followed. NMR samples of 100 – 200 μM were prepared in a buffer of 50 mM Tris, pH 7.5, 100 mM NaCl, 5 mM β-mercaptoethanol, 7% D2O, 1 mM 4,4-dimethyl-4-silapentane-1-sulfonic acid as the internal standard. ^15N-HSQC titration experiments were performed on a Varian/Agilent Inova 600 MHz spectrometer equipped with inverse-triple resonance cryo-probe at 35°C. All spectra were processed with NMRPipe and analyzed in CCPNmr Analysis software suite.
To find out the molecular details of these weak Shc-PtdIns interactions, we next employed NMR and performed ^15N-HSQC chemical shifts mapping experiments which are especially useful to define weak binding. […] Chemical shift perturbations, associated with the probes binding, were monitored. Overall, the observed shifts in Shc PTB resonance frequencies were small. However, they were concentration dependent, reproducible, and similar among the two PtdIns tested. […] The close-ups of 15N-HSQC spectra of PTB in the presence of PtdIns(4,5)P2, exemplifying the most shifted resonances, are shown in Figure 2. […] The first one, represented by the residues Q^148, S^149 and A^168, overlaps with the classical phosphotyrosine binding pocket of the protein-peptide binary complex. However, the canonical PTB fold cannot be formed without the stabilizing hydrophobic residue (pY-5) of the target peptide. Thus, in apo PTB domain Ins(1,4,5)P3 could only establish intermediate dynamic contacts with the amine functional groups of R^67 or Q^148 side chains. The second binding site, including the residues L^63, Q^76 and S^107, is formed at the interface of the second helix, the loop connecting the first beta strand with the second helix and the beginning of the second beta strand. This second PtdIns binding site is distinct from the second novel phosphotyrosine binding site we previously described for Shc PTB-bi-β3 complex, although it includes several overlapping residues. […]

[2] = molecular target: T1, Shc PTB domain (17 – 207); experiment: ITC binding to Shc PTB domain; details: for thermodynamic character of binding (heat sign, driving force) / Kd / ΔG / ΔH / −TΔS: ITC, 25°C; for Kd / ΔG / ΔH / −TΔS: PtdIns binding to PTB domain; for Kd: 50 mM Tris pH 7.5, 100 mM NaCl, 5 mM β-mercaptoethanol, "independent" model, dihexanoyl- or dioctonoyl- PtdIns, read-out: Kd; for ΔG / ΔH / −TΔS: pH 7.5
Method: The Shc PTB domain (17 – 207) containing the pET15b vector was transformed into a Rosetta (DE3) cell line to pursue optimal expression levels. SH2 domain (380 – 473) was cloned into NdeI and XhoI sites in pET21b vector and then transformed into a BL21 (DE3) cell line. The vector of pET28a-full length Shc (1 – 473), generously provided by Dr. Ladbury (University of Texas MD Anderson Cancer Center, TX), was expressed in a BL21 (DE3) cell line as well. Typically, 10 ml overnight culture was used to inoculate 1 liter LB broth. Cells were grown at 37°C until OD600 reached 0.6. At this point the culture was cooled to room temperature and then the overnight overexpression was induced by 1 mM isopropyl-β-D-thiogalactopyranoside. Harvested cells were kept at −20°C for future purification or resuspended in lysis buffer supplemented with protease inhibitors. Cells were further lysed by french press and the cell debris was removed by centrifugation at 18,000 rpm at 4°C. […] The overexpression of the target protein and the purified protein were confirmed by SDS-PAGE and the bands of the expected mass were observed. The determination of protein concentration by UV measurement was consistent with Bradford assay.
Calorimetric measurements of a full length Shc, PTB domain, and SH2 domain to β3 phosphopeptides or PtdIns were performed on a low volume Nano ITC (TA Instruments). All experiments were carried out in a buffer of 50 mM Tris, pH 7.5, 100 mM NaCl, 5 mM β-mercaptoethanol (unless described otherwise) at 12°C or 25°C with a stirring speed of 250 rpm to minimize the precipitation of the protein. 300 second time intervals were set between injections. The concentration of protein samples was determined by UV measurements. The titrants (β3 phosphopeptides or PtdIns) were prepared in the same buffer by the dilution of higher concentration stocks. The concentrations of the protein ranged from 30 μM to 150 μM. The concentration of protein was examined after each ITC experiment by UV to ensure the stability of proteins under the test condition. The analysis of the data was done with Nano Analyze Software (TA Instruments) suite using an “independent” model.

[3] = molecular target: TrkA phosphopeptide (Homo sapiens) (UniProt P04629); experiment: ITC; details: cited from earlier work
[4] = molecular target: TrkA phosphopeptide (Homo sapiens) (UniProt P04629); experiment: SPR; details: cited from earlier work
[5] = molecular target: T2, Shc PTB domain (17 – 207); experiment: ITC; Nano ITC; β3 phosphopeptide titrated into the Shc protein (30-150 μM); 12°C; 50 mM Tris, pH 7.5, 100 mM NaCl, 5 mM β-mercaptoethanol; independent model; details: both partners purified
[6] = molecular target: T3, full length Shc (1 – 473); experiment: ITC; Nano ITC; β3 phosphopeptide titrated into the Shc protein over-saturated by Ins(1,4,5)P3 at 3 to 1 lipid to protein ratio; 12°C; details: both partners purified
[7] = molecular target: T2, Shc PTB domain (17 – 207); experiment: as above; details: both partners purified
[8] = molecular target: T3, full length Shc (1 – 473); experiment: ITC; Nano ITC; β3 phosphopeptide titrated into the Shc protein (30-150 μM); 12°C; 50 mM Tris, pH 7.5, 100 mM NaCl, 5 mM β-mercaptoethanol; independent model; details: both partners purified
[9] = molecular target: T2, Shc PTB domain (17 – 207); experiment: as above; details: both partners purified; remark: listed apart in the source
[10] = molecular target: T3, full length Shc (1 – 473); experiment: ITC; Nano ITC; β3 phosphopeptide titrated into the Shc protein (30-150 μM); 25°C; 50 mM Tris, pH 7.5, 100 mM NaCl, 5 mM β-mercaptoethanol; independent model; details: both partners purified
[11] = molecular target: T2, Shc PTB domain (17 – 207); experiment: as above; details: both partners purified
[12] = molecular target: T3, full length Shc (1 – 473); experiment: as above; details: both partners purified; remark: listed apart in the source
[13] = molecular target: T2, Shc PTB domain (17 – 207); experiment: as above; details: both partners purified; remark: listed apart in the source

Sequence of TrkA phosphopeptide (Homo sapiens) (P04629 33-796): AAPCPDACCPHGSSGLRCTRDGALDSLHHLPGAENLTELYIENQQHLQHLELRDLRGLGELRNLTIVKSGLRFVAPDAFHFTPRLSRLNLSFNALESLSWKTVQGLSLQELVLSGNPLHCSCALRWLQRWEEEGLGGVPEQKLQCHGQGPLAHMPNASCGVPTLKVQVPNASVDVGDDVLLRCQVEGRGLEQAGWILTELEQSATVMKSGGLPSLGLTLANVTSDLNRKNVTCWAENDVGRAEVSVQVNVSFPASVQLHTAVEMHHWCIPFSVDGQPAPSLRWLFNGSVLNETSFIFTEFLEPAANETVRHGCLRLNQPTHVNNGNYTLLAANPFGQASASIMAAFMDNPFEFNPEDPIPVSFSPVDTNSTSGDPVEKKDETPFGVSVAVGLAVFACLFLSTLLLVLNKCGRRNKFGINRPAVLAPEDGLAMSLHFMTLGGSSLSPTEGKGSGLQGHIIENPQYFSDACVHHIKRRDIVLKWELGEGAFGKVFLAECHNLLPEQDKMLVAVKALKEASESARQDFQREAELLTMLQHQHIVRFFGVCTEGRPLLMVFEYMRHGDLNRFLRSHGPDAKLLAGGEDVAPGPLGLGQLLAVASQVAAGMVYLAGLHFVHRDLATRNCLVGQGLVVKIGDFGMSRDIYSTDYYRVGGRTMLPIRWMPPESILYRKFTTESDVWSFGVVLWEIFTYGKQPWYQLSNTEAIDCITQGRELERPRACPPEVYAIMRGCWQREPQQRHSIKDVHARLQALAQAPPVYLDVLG

Molecule | Kd (apo PTB domain of Shc) | Kd [1] | lipid specificity (Shc PTB domain) | 15N-HSQC chemical shift perturbations (apo Shc PTB domain) | thermodynamic character of binding (heat sign, driving force) ([2]; PTB domain) | Kd [2] | ΔG [2] | ΔH [2] | −TΔS [2] | further results
CCCCCCCCCCCCCCCC(=O)OC[C@H](COP(=O)(O)O[C@H]1[C@H](O)[C@@H](O)[C@H](OP(=O)(O)O)[C@@H](OP(=O)(O)O)[C@H]1O)OC(=O)CCCCCCCCCCCCCCC [PtdIns(4,5)P2, Phosphatidylinositol-4,5-diphosphate] | 140 µM | ~450 µM | higher specificities | small; also recorded: more pronounced; also recorded: three major binding regions | endothermic interactions at 25 °C that are driven predominantly by entropy | 125 µM | -5.323 kcal/mol | 0.464 kcal/mol | -5.786 kcal/mol | –
Phosphatidylinositol-4-phosphate [PtdIns(4)P1] | 52 µM | ~450 µM | higher specificities | small | endothermic interactions at 25 °C that are driven predominantly by entropy | 95 µM | -5.485 kcal/mol | 0.361 kcal/mol | -5.846 kcal/mol | binding affinity relative to that reported before ([2]; PTB domain, ITC 25°C vs. centrifugation assay of ref 15): about two times weaker
Shc PTB (from UniProt P29353) | – | – | – | – | – | – | – | – | – | Kd [3]: 0.19 µM; Kd [4]: 0.053 µM
B1 | – | – | – | – | – | – | – | – | – | stoichiometry N [5]: 1 ± 0.15; Kd [6]: 4.38 µM; dH [6]: -3.32 kcal/mol; Kd [7]: 3.65 µM; dH [7]: -2.96 kcal/mol; Kd [8]: 5.21 µM; dH [8]: -3.89 kcal/mol; Kd [9]: 4.32 µM; dH [9]: -2.75 kcal/mol; stoichiometry N [10]: 1 ± 0.15; stoichiometry N [11]: ~1; Kd [12]: 2.84 µM; dH [12]: -6.89 kcal/mol; Kd [13]: 5.14 µM; dH [13]: -5.49 kcal/mol
